Results reported in PubChem BioAssay (NCI).
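Following 48 hours of exposure in 96-well plates, responses at five concentrations were used to interpolate endpoints linearly. GI50 = concentration required for 50% inhibition of growth. TGI marks complete inhibition of growth.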

What was measured:
Assay in all cases: NCI anticancer screen, dose series, 48 h
COLO 205 colon = system: COLO 205 colon
M14 melanoma = system: M14 melanoma
OVCAR-4 ovarian = system: OVCAR-4 ovarian
PC-3 prostate = system: PC-3 prostate
SF-268 CNS = system: SF-268 CNS
SK-MEL-28 melanoma = system: SK-MEL-28 melanoma
SK-MEL-5 melanoma = system: SK-MEL-5 melanoma
SK-OV-3 ovarian = system: SK-OV-3 ovarian
SNB-19 CNS = system: SNB-19 CNS
UACC-257 melanoma = system: UACC-257 melanoma

Row | SMILES | GI50 (COLO 205 colon) | TGI (COLO 205 colon) | GI50 (M14 melanoma) | TGI (M14 melanoma) | GI50 (OVCAR-4 ovarian) | TGI (OVCAR-4 ovarian) | GI50 (PC-3 prostate) | TGI (PC-3 prostate) | GI50 (SF-268 CNS) | TGI (SF-268 CNS) | GI50 (SK-MEL-28 melanoma) | TGI (SK-MEL-28 melanoma) | GI50 (SK-MEL-5 melanoma) | TGI (SK-MEL-5 melanoma) | GI50 (SK-OV-3 ovarian) | TGI (SK-OV-3 ovarian) | GI50 (SNB-19 CNS) | TGI (SNB-19 CNS) | GI50 (UACC-257 melanoma) | TGI (UACC-257 melanoma)
1 | O=C(Nc1ccc2[nH]c(=S)sc2c1)Nc1ccccc1F | 24.5 µM | 65.4 µM | 42.4 µM | > 100 µM | 21 µM | > 100 µM | 21.5 µM | > 100 µM | 38.2 µM | > 100 µM | 42.2 µM | > 100 µM | 17.3 µM | 84.1 µM | > 100 µM | > 100 µM | 41.8 µM | > 100 µM | 73.5 µM | > 100 µM
2 | Cc1cc(Cc2cc(C)cc(C(C)(C)C)c2O)c(O)c(Cc2cc(C)cc(C(C)(C)C)c2O)c1 |  | 9.17 µM |  | 7.26 µM |  | 11.7 µM |  | 9.12 µM |  | 9.92 µM |  | 16.7 µM |  | 2.62 µM |  | 10.9 µM |  | 15.7 µM |  | 5.3 µM
3 | N#CC1=C(N)Oc2c(sc3c(Br)cccc23)C1c1ccc(Br)cc1 (stereo not given) | 0.406 µM | 1.88 µM | 0.515 µM | 3.5 µM | 1.46 µM | 15.5 µM | 0.516 µM | 6.32 µM | 1.15 µM | 10 µM | 1.44 µM | 13.3 µM | 2.21 µM | 14.6 µM | 0.316 µM | 3.38 µM | 0.707 µM | 12.8 µM | 1.19 µM | 15.4 µM
